# Patent US11000033B2, “Ketone or oxime compound, and herbicide” (NISSAN CHEMICAL CORPORATION, priority 2014, dated 2021)
# Experiments:
# Type in all cases: in vivo
# [1] = test system: Alopecurus myosuroides; test: Test Example 4: herbicidal effect by soil treatment (symbol J); settings: application herbicide amount 320 g/ha
# Procedure, shortened: (§1)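 Seeds were sown in sterilized diluvial soil, covered with about 1.5 cm of soil, and the soil surface was sprayed with a water-diluted emulsion of the compound at a predetermined rate. Plants grew in a greenhouse at 25° C. to 30° C.; effects were scored visually 3 weeks after application.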
# [2] = test system: Veronica persica; test: Test Example 4: herbicidal effect by soil treatment (symbol R); settings: application herbicide amount 320 g/ha
# Procedure, shortened: as §1
# [3] = test system: Avena fatua; test: Test Example 4: herbicidal effect by soil treatment (symbol I); settings: application herbicide amount 320 g/ha
# Procedure, shortened: as §1
# [4] = test system: Lolium multiflorum Lam.; test: Test Example 5: herbicidal effect by foliage application, plastic box (symbol K); settings: 320 g/ha, 3 weeks after application
# Procedure, shortened: (§2)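 Seeds were sown in sterilized diluvial soil, covered with about 1.5 cm of soil and grown 14 days in a greenhouse at 25° C. to 30° C. An emulsifiable formulation diluted in water to a set rate was sprayed over foliage, and injury was scored 3 weeks later.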
# [5] = test system: Alopecurus myosuroides; test: Test Example 5: herbicidal effect by foliage application, plastic box (symbol J); settings: 320 g/ha, 3 weeks after application
# Procedure, shortened: as §2
# [6] = test system: soybean; test: Test Example 5: effect on crop by foliage application, plastic box (symbol d); settings: 320 g/ha, 3 weeks after application
# Procedure, shortened: (§3)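 Seeds were sown in spots in sterilized diluvial soil held in a plastic box 21 cm × 13 cm × 7 cm deep, covered with about 1.5 cm of soil, and grown in a greenhouse at 25° C. to 30° C.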
# [7] = test system: Leptochloa chinensis; test: Test Example 3: herbicidal effect by foliage application, Wagner pot (symbol D); settings: application herbicide amount 320 g/ha; for D (Leptochloa chinensis) herbicidal effect grade: Table 24
# Procedure, shortened: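 Weeds and rice were sown in alluvial soil under 0.1–0.5 cm of standing water and grown for 14 days in a 25–30 °C greenhouse. An emulsion of the compound, diluted in water to a set dose, was sprayed evenly onto the foliage. Effect was scored against fixed criteria 3 weeks after treatment.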
# [8] = test system: Galium spurium; test: Test Example 5: herbicidal effect by foliage application, plastic box (symbol Q); settings: 320 g/ha, 3 weeks after application
# Procedure, shortened: as §2
# [9] = test system: Digitaria ciliaris; test: Test Example 5: herbicidal effect by foliage application, plastic box (symbol F); settings: 320 g/ha, 3 weeks after application
# Procedure, shortened: as §2
# [10] = test system: transplanted rice plant; test: Test Example 1: effect on crop, application before weed generation in submerged conditions (symbol a); settings: application herbicide amount 320 g/ha
# Procedure, shortened: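 Alluvial soil pots flooded to 4 cm water, sown with Echinochloa oryzacola, Scirpus juncoides and Monochoria vaginalis, then transplanted with 2.5 leaf stage rice seedlings; pre-emergence application. Greenhouse 25° C. to 30° C.; scored 0–5 by herbicidal ratio 3 weeks after application.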
# [11] = test system: corn; test: Test Example 5: effect on crop by foliage application, plastic box (symbol c); settings: 320 g/ha, 3 weeks after application
# Procedure, shortened: as §3
# [12] = test system: wheat; test: Test Example 5: effect on crop by foliage application, plastic box (symbol e); settings: 320 g/ha, 3 weeks after application
# Procedure, shortened: as §3
# [13] = test system: Scirpus juncoides; test: Test Example 2: herbicidal activity, application during weed generation in submerged conditions (symbol B); settings: Table 23; application herbicide amount 320 g/ha; grade 0-5 by criteria of Test Example 1
# Procedure, shortened: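 Alluvial soil in pots was flooded to a 4 cm water depth and sown with a mix of the three weed species, then grown in a greenhouse at 25° C. to 30° C. At the one- to two-leaf stage, an emulsifiable formulation diluted in water to a set dose was applied to the water surface. Effects were scored visually 3 weeks later.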
# [14] = test system: wheat; test: Test Example 4: effect on crop by soil treatment (symbol e); settings: application herbicide amount 320 g/ha
# Procedure, shortened: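 Seeds were sown in spots on sterilized diluvial soil in a plastic box and covered with about 1.5 cm of soil. Plants were then grown in a greenhouse at 25° C. to 30° C.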
SMILES,"J: Alopecurus myosuroides, herbicidal effect grade [1]","R: Veronica persica, herbicidal effect grade [2]","I: Avena fatua, herbicidal effect grade [3]","K: Lolium multiflorum Lam., herbicidal effect grade [4]","J: Alopecurus myosuroides, herbicidal effect grade [5]","d: soybean, effect on crop grade [6]",D (Leptochloa chinensis) herbicidal effect grade [7],"Q: Galium spurium, herbicidal effect grade [8]","F: Digitaria ciliaris, herbicidal effect grade [9]",a (transplanted rice plant) effect on crop grade [10],"c: corn, effect on crop grade [11]","e: wheat, effect on crop grade [12]","Herbicidal effect grade, B: Scirpus juncoides [13]","e: wheat, effect on crop grade [14]",other results
CCC(CC1CC(O)=C(c2c(C)cc(-c3ccccc3)cc2OC)C1=O)=NOC (mixture of isomers) [13-004],5 (Herbicidal ratio of 90% or more (almost completely withered)),3 (Herbicidal ratio of 40% or higher and lower than 70%),3 (Herbicidal ratio of 40% or higher and lower than 70%),5 (Herbicidal ratio of 90% or more (almost completely withered)),5 (Herbicidal ratio of 90% or more (almost completely withered)),1 (Herbicidal ratio of 5% or higher and lower than 20%),5 (Herbicidal ratio of 90% or more (almost completely withered)),4 (Herbicidal ratio of 70% or higher and lower than 90%),5 (Herbicidal ratio of 90% or more (almost completely withered)),5 (Herbicidal ratio of 90% or more (almost completely withered)),5 (Herbicidal ratio of 90% or more (almost completely withered)),5 (Herbicidal ratio of 90% or more (almost completely withered)),5 (Herbicidal ratio of 90% or more (almost completely withered)),5 (Herbicidal ratio of 90% or more (almost completely withered)),–
CON=C(CC1CC(OC(=O)N2CCOCC2)=C(c2c(C)cc(C)cc2OC)C1=O)C1CC1 (mixture of isomers) [13-005],4 (Herbicidal ratio of 70% or higher and lower than 90%),0 (Herbicidal ratio of 5% or lower (almost no effect)),0 (Herbicidal ratio of 5% or lower (almost no effect)),5 (Herbicidal ratio of 90% or more (almost completely withered)),5 (Herbicidal ratio of 90% or more (almost completely withered)),0 (Herbicidal ratio of 5% or lower (almost no effect)),5 (Herbicidal ratio of 90% or more (almost completely withered)),0 (Herbicidal ratio of 5% or lower (almost no effect)),5 (Herbicidal ratio of 90% or more (almost completely withered)),5 (Herbicidal ratio of 90% or more (almost completely withered)),4 (Herbicidal ratio of 70% or higher and lower than 90%),5 (Herbicidal ratio of 90% or more (almost completely withered)),2 (Herbicidal ratio of 20% or higher and lower than 40%),1 (Herbicidal ratio of 5% or higher and lower than 20%),–
Cc1cc(Br)cc(C)c1C1=C(O)CC(CC(=O)C(C)C)C1=O (racemic) [10-003],–,–,–,4 (Herbicidal ratio of 70% or higher and lower than 90%),3 (Herbicidal ratio of 40% or higher and lower than 70%),0 (Herbicidal ratio of 5% or lower (almost no effect)),4 (Herbicidal ratio of 70% or higher and lower than 90%),0 (Herbicidal ratio of 5% or lower (almost no effect)),3 (Herbicidal ratio of 40% or higher and lower than 70%),3 (Herbicidal ratio of 40% or higher and lower than 70%),2 (Herbicidal ratio of 20% or higher and lower than 40%),0 (Herbicidal ratio of 5% or lower (almost no effect)),0 (Herbicidal ratio of 5% or lower (almost no effect)),–,"Herbicidal effect grade, J: Alopecurus myosuroides [1]: 3 (Herbicidal ratio of 40% or higher and lower than 70%); Herbicidal effect grade, R: Veronica persica [2]: 0 (Herbicidal ratio of 5% or lower (almost no effect)); Herbicidal effect grade, I: Avena fatua [3]: 0 (Herbicidal ratio of 5% or lower (almost no effect)); Effect on crop grade, e: wheat [14]: 0 (Herbicidal ratio of 5% or lower (almost no effect))"
COc1cc(Br)cc(C)c1C1=C(O)CC(CC(=O)C2CC2)C1=O (racemic) [14-001],5 (Herbicidal ratio of 90% or more (almost completely withered)),0 (Herbicidal ratio of 5% or lower (almost no effect)),5 (Herbicidal ratio of 90% or more (almost completely withered)),5 (Herbicidal ratio of 90% or more (almost completely withered)),5 (Herbicidal ratio of 90% or more (almost completely withered)),2 (Herbicidal ratio of 20% or higher and lower than 40%),5 (Herbicidal ratio of 90% or more (almost completely withered)),0 (Herbicidal ratio of 5% or lower (almost no effect)),5 (Herbicidal ratio of 90% or more (almost completely withered)),5 (Herbicidal ratio of 90% or more (almost completely withered)),5 (Herbicidal ratio of 90% or more (almost completely withered)),4 (Herbicidal ratio of 70% or higher and lower than 90%),0 (Herbicidal ratio of 5% or lower (almost no effect)),0 (Herbicidal ratio of 5% or lower (almost no effect)),–
CCC(=O)CC1CC(O)=C(c2c(C)cc(Br)cc2OC)C1=O (racemic) [14-002],4 (Herbicidal ratio of 70% or higher and lower than 90%),0 (Herbicidal ratio of 5% or lower (almost no effect)),0 (Herbicidal ratio of 5% or lower (almost no effect)),5 (Herbicidal ratio of 90% or more (almost completely withered)),5 (Herbicidal ratio of 90% or more (almost completely withered)),1 (Herbicidal ratio of 5% or higher and lower than 20%),5 (Herbicidal ratio of 90% or more (almost completely withered)),0 (Herbicidal ratio of 5% or lower (almost no effect)),5 (Herbicidal ratio of 90% or more (almost completely withered)),2 (Herbicidal ratio of 20% or higher and lower than 40%),5 (Herbicidal ratio of 90% or more (almost completely withered)),3 (Herbicidal ratio of 40% or higher and lower than 70%),0 (Herbicidal ratio of 5% or lower (almost no effect)),3 (Herbicidal ratio of 40% or higher and lower than 70%),–
CON=C(C)CC1CC(OS(C)(=O)=O)=C(c2c(C)cc(C)cc2C)C1=O (stereo not drawn) [1-006],–,–,–,5 (Herbicidal ratio of 90% or more (almost completely withered)),5 (Herbicidal ratio of 90% or more (almost completely withered)),4 (Herbicidal ratio of 70% or higher and lower than 90%),–,0 (Herbicidal ratio of 5% or lower (almost no effect)),5 (Herbicidal ratio of 90% or more (almost completely withered)),–,3 (Herbicidal ratio of 40% or higher and lower than 70%),3 (Herbicidal ratio of 40% or higher and lower than 70%),3 (Herbicidal ratio of 40% or higher and lower than 70%),–,"J (Alopecurus myosuroides) herbicidal effect grade [1]: 4 (Herbicidal ratio of 70% or higher and lower than 90%); R (Veronica persica) herbicidal effect grade [2]: 0 (Herbicidal ratio of 5% or lower (almost no effect)); I (Avena fatua) herbicidal effect grade [3]: 3 (Herbicidal ratio of 40% or higher and lower than 70%); herbicidal effect on D (Leptochloa chinensis), grade 0-5 [7]: 5 (Herbicidal ratio of 90% or more (almost completely withered)); Effect grade on crop, a: transplanted rice plant [10]: 4 (Herbicidal ratio of 70% or higher and lower than 90%); e (wheat) effect on crop grade [14]: 0 (Herbicidal ratio of 5% or lower (almost no effect))"
